Data from patent US20230025880A1, “FUSED TRICYCLIC COMPOUND AND MEDICINAL USE THEREOF” (JAPAN TOBACCO INC., priority 2020, published 2023).

Molecular target: T1, human PDHK2 (hPDHK2) (Homo sapiens, UniProt Q15119)
T1 construct: made in house; host or cells: Escherichia coli BL21(DE3), pET-17b vector
Assay: Inhibitory action of PDHK2 activity (residual PDH activity, NADH absorbance at 340 nm)
Format: biochemical
Details: PDH/hPDHK2 complex, PDHK reaction 45 min at room temperature
Protocol: In the case of human PDHK2 (hPDHK2, NCBI Reference Database Accession number NM_002611.4), modified hPDHK2 cDNA wherein FLAG-Tag sequence was added to the N terminus of hPDHK2 cDNA clone (pReceiver-M01/PDK2-GeneCopoeia) as the base was prepared by polymerase chain reaction (PCR) and ligated to the NdeI/EcoRI site of pET-17b vector (Merck KGaA, Catalog Number 69663-3). The recombinant construct was transformed into Escherichia coli DH5α. The recombinant clones were identified, and plasmid DNA was isolated and subjected to the DNA sequence analysis. One clone which had the expected nucleic acid sequence was selected for expression work.
For expression of hPDHK2 activity, Escherichia coli strain BL21(DE3) cells (Merck KGaA, Catalog Number 69450-4) were transformed with the pET17b vector containing modified hPDHK2 cDNA. The Escherichia coli were grown to an optical density 0.6 ([…]) at 30° C. Protein expression was induced by the addition of 500 μmol/L isopropyl-β-thiogalactopyranoside. The Escherichia coli were cultured at 20° C. for 17-18 hr and harvested by centrifugation. The harvested Escherichia coli was resuspended in a suspension buffer (20 mmol/L HEPES-NaOH, 500 mmol/L sodium chloride, 1% ethylene glycol, 0.1% Pluronic (registered trademark) F-68 (pH 8.0), cOmplete, EDTA-free (Roche) (pH 8.0)), and disrupted by a microfluidizer M-110H (MIZUHO INDUSTRIAL CO., LTD.). The precipitate was removed by centrifugation and the supernatant was added to DDDDK-tagged Protein PURIFICATION GEL (MEDICAL & BIOLOGICAL LABORATORIES CO., LTD., Code No. 3329). DDDDK-tagged Protein PURIFICATION GEL was washed with a washing buffer (20 mmol/L HEPES-NaOH, 500 mmol/L sodium chloride, 1% ethylene glycol, 0.1% Pluronic F-68 (pH 8.0)) and the bound protein was eluted with elution buffer 1 (20 mmol/L HEPES-NaOH, 100 μg/mL peptide (amino acid sequence DYKDDDDK) (SEQ ID NO: 1), 500 mmol/L sodium chloride, 1% ethylene glycol, 0.1% Pluronic F-68 (pH 8.0)). The eluted fractions containing FLAG-Tagged protein were pooled, concentrated by an ultrafiltration method, added to a gel filtration column (HiLoad 26/60 Superdex 200 (GE Healthcare Life Sciences, Code No. 17-1070-01)), and eluted with elution buffer 2 (20 mmol/L HEPES-NaOH, 150 mmol/L sodium chloride, 0.5 mmol/L ethylenediaminetetraacetic acid (EDTA), 1% ethylene glycol, 0.1% Pluronic F-68 (pH 8.0)). The eluted fractions were pooled and preserved at −80° C.
PDH (porcine heart PDH complex, Sigma P7032) and 0.5 μg/mL hPDHK2 were mixed in an assay buffer (50 mmol/L 3-morpholinopropanesulfonic acid (pH 7.0), 20 mmol/L dipotassium hydrogen phosphate, 60 mmol/L potassium chloride, 2 mmol/L magnesium chloride, 0.4 mmol/L EDTA, 0.2% poloxamer, 2 mmol/L dithiothreitol) so that the final concentration of PDH was 0.025 U/mL, and the mixture was incubated at 4° C. overnight to obtain a PDH/hPDHK2 complex solution.
PDH was mixed with the assay buffer so that the final concentration was 0.025 U/mL, and the mixture was incubated at 4° C. overnight to prepare a PDH solution.
The test compounds were diluted with DMSO. To measure an inhibitory action of the test compound on the PDHK activity in the PDH/hPDHK2 complex solution, PDH/hPDHK2 complex solution (20 μL), test compound (1.5 μL) and 1.06 μmol/L ATP (diluted with assay buffer) (8.5 μL) were added to a 384 well microplate (Greiner Bio-One 781801) and PDHK reaction was performed at room temperature for 45 min (test compound well). DMSO (1.5 μL) was added to control wells instead of test compound. In addition, DMSO (1.5 μL) was added to blank wells instead of the test compound, and PDH solution was added instead of the PDH/hPDHK2 complex solution. To measure an inhibitory action of the test compound on the PDHK activity inherent in the PDH solution, a test compound was added and the PDH solution instead of the PDH/hPDHK2 complex solution was added to a blank+test compound well. […]

Structure (SMILES) | IC50
C[C@H]1Cn2ncc(F)c2-c2cnc([C@@](C)(O)C(F)(F)F)n21 [Example 44] | 0.017 µM
C[C@H]1Cn2nc(Oc3ccc(C#N)cn3)cc2-c2cnc([C@@](C)(O)C(F)(F)F)n21 [Example 47] | 0.02 µM
C[C@H]1Cn2nc(OCc3ccc(C#N)cc3)cc2-c2cnc([C@@](C)(O)C(F)(F)F)n21 [Example 49] | 0.0088 µM
C[C@H]1Cn2c(-c3ccc(C(F)(F)F)cc3)nnc2-c2cnc([C@@](C)(O)C(F)(F)F)n21 [Example 54] | 0.0093 µM
C[C@H]1Cn2c(-c3ccc(F)cc3C(F)(F)F)nnc2-c2cnc([C@@](C)(O)C(F)(F)F)n21 [Example 56] | 0.007 µM
C[C@H]1Cn2nc(OC3CN(C(=O)c4ccc(F)cc4)C3)cc2-c2cnc([C@@](C)(O)C(F)(F)F)n21 [Example 58] | 0.0088 µM
CCC(F)(F)c1nnc2n1C[C@H](C)n1c-2cnc1[C@@](C)(O)C(F)(F)F [Example 59] | 0.01 µM
CC(C)C(F)(F)c1nnc2n1C[C@H](C)n1c-2cnc1[C@@](C)(O)C(F)(F)F [Example 60] | 0.0068 µM
C[C@H]1Cn2nc(OCCOC(F)(F)F)cc2-c2cnc([C@@](C)(O)C(F)(F)F)n21 [Example 61] | 0.014 µM
C[C@H]1Cn2c(nnc2C(F)(F)Oc2ccc(F)cc2)-c2cnc([C@@](C)(O)C(F)(F)F)n21 [Example 62] | 0.0063 µM
C[C@H]1Cn2nc(OCC3CCN(C(=O)c4ccc(F)cc4)CC3)cc2-c2cnc([C@@](C)(O)C(F)(F)F)n21 [Example 69] | 0.015 µM
C[C@H]1Cn2nc(Oc3cc(C(F)(F)F)ncn3)cc2-c2cnc([C@@](C)(O)C(F)(F)F)n21 [Example 70] | 0.019 µM
C[C@H]1Cn2nc(Oc3cc(C4CC4)ncn3)cc2-c2cnc([C@@](C)(O)C(F)(F)F)n21 [Example 72] | 0.012 µM
C[C@H]1Cn2c(nnc2C(F)(F)c2ccccc2Cl)-c2cnc([C@@](C)(O)C(F)(F)F)n21 [Example 73] | 0.0074 µM
C[C@H]1Cn2nc(OCCN3CCCS3(=O)=O)cc2-c2cnc([C@@](C)(O)C(F)(F)F)n21 [Example 76] | 0.013 µM
C[C@H]1Cn2nc(OC3CCOCC3)cc2-c2cnc([C@@](C)(O)C(F)(F)F)n21 [Example 77] | 0.017 µM
C[C@H]1Cn2nc(OC(C)(C)C(C)(C)O)cc2-c2cnc([C@@](C)(O)C(F)(F)F)n21 [Example 80] | 0.013 µM
C[C@H]1Cn2c(nnc2C2(c3ccc(F)cc3)CC2)-c2cnc([C@@](C)(O)C(F)(F)F)n21 [Example 81] | 0.0073 µM
C[C@H]1Cn2nc(OCC(O)(C(F)(F)F)C(F)(F)F)cc2-c2cnc([C@@](C)(O)C(F)(F)F)n21 [Example 85] | 0.023 µM
C[C@H]1Cn2nc(Oc3ccnc(C(F)(F)F)c3)cc2-c2cnc([C@@](C)(O)C(F)(F)F)n21 [Example 86] | 0.016 µM
C[C@H]1Cn2c(nnc2C(F)(F)c2ccc(C(F)(F)F)cn2)-c2cnc([C@@](C)(O)C(F)(F)F)n21 [Example 87] | 0.0087 µM
C[C@H]1Cn2c(nnc2C2(c3ccc(Cl)cc3)COC2)-c2cnc([C@@](C)(O)C(F)(F)F)n21 [Example 89] | 0.0088 µM
C[C@H]1Cn2c(nnc2C(C)(F)F)-c2cnc([C@@](C)(O)C(F)(F)F)n21 [Example 90] | 0.015 µM
C[C@H]1Cn2c(nnc2C(C)(C)F)-c2cnc([C@@](C)(O)C(F)(F)F)n21 [Example 91] | 0.011 µM
C[C@H]1Cn2c(nnc2C(O)(C(F)(F)F)C(F)(F)F)-c2cnc([C@@](C)(O)C(F)(F)F)n21 [Example 92] | 0.016 µM
COC(c1nnc2n1C[C@H](C)n1c-2cnc1[C@@](C)(O)C(F)(F)F)(C(F)(F)F)C(F)(F)F [Example 93] | 0.021 µM
C[C@H]1Cc2cc(C#N)ccc2-c2cnc([C@@](C)(O)C(F)(F)F)n21 [Example 94] | 0.0086 µM
C[C@H]1Cn2nc(Oc3ccc(C#N)nc3)cc2-c2cnc([C@@](C)(O)C(F)(F)F)n21 [Example 95] | 0.018 µM
C[C@H]1Cn2nc(OCCOC(F)F)cc2-c2cnc([C@@](C)(O)C(F)(F)F)n21 [Example 96] | 0.013 µM

The remaining lines, values ahead:

IC50 | Structure (SMILES)
0.013 µM | C[C@H]1Cn2nc(OCC(F)F)cc2-c2cnc([C@@](C)(O)C(F)(F)F)n21 [Example 46]
0.014 µM | C[C@H]1Cn2nc(OCF)cc2-c2cnc([C@@](C)(O)C(F)(F)F)n21 [Example 48]
0.017 µM | C[C@H]1Cn2nc(OCC3(C#N)CC3)cc2-c2cnc([C@@](C)(O)C(F)(F)F)n21 [Example 51]
0.021 µM | C[C@H]1Cn2nc(OCC(C)(C)O)cc2-c2cnc([C@@](C)(O)C(F)(F)F)n21 [Example 52, (R)-1,1,1-trifluoro-2-((S)-9-(2-hydroxy-2-methylpropoxy)-5-methyl-5,6-dihydroimidazo[1,5-a]pyrazolo[5,1-c]pyrazin-3-yl)propan-2-ol]
0.013 µM | C[C@H]1Cn2nc(OCC(=O)N3CC(F)(F)C3)cc2-c2cnc([C@@](C)(O)C(F)(F)F)n21 [Example 53]
0.016 µM | C[C@H]1Cn2nc(OC(C)(C)C)cc2-c2cnc([C@@](C)(O)C(F)(F)F)n21 [Example 55]
0.022 µM | C[C@H]1Cn2nc(OCC3(CC#N)CC3)cc2-c2cnc([C@@](C)(O)C(F)(F)F)n21 [Example 57]
0.014 µM | C[C@H]1Cn2nc(OCCN3CCCC3=O)cc2-c2cnc([C@@](C)(O)C(F)(F)F)n21 [Example 63]
0.019 µM | CC(=O)N1CC(COc2cc3n(n2)C[C@H](C)n2c-3cnc2[C@@](C)(O)C(F)(F)F)C1 [Example 64]
0.013 µM | C[C@H]1Cn2nc(OCC3CN(S(C)(=O)=O)C3)cc2-c2cnc([C@@](C)(O)C(F)(F)F)n21 [Example 65]
0.018 µM | C[C@H]1Cn2nc(OCC3CN(C(=O)c4ccc(F)cc4)C3)cc2-c2cnc([C@@](C)(O)C(F)(F)F)n21 [Example 66]
0.019 µM | CC(=O)N1CCC(COc2cc3n(n2)C[C@H](C)n2c-3cnc2[C@@](C)(O)C(F)(F)F)CC1 [Example 67]
0.014 µM | C[C@H]1Cn2nc(OCC3CCN(S(C)(=O)=O)CC3)cc2-c2cnc([C@@](C)(O)C(F)(F)F)n21 [Example 68]
0.026 µM | CC(=O)N1CCC(Oc2cc3n(n2)C[C@H](C)n2c-3cnc2[C@@](C)(O)C(F)(F)F)CC1 [Example 71]
0.012 µM | C[C@H]1Cn2nc(OCC(F)(F)F)cc2-c2cnc([C@@](C)(O)C(F)(F)F)n21 [Example 74]
0.019 µM | CC(=O)N1CCC(c2cc3n(n2)C[C@H](C)n2c-3cnc2[C@@](C)(O)C(F)(F)F)CC1 [Example 75]
0.017 µM | C[C@H]1Cn2nc(OCC3COC3)cc2-c2cnc([C@@](C)(O)C(F)(F)F)n21 [Example 78]
0.015 µM | C[C@H]1Cn2nc(OCC(C)(C)C#N)cc2-c2cnc([C@@](C)(O)C(F)(F)F)n21 [Example 79]
0.023 µM | C[C@H]1Cn2nc(OCC3CCS(=O)(=O)CC3)cc2-c2cnc([C@@](C)(O)C(F)(F)F)n21 [Example 82]
0.016 µM | C[C@H]1Cn2nc(OCC3CC4CCC(C3)S4(=O)=O)cc2-c2cnc([C@@](C)(O)C(F)(F)F)n21 (stereo partly drawn) [Example 83]
0.042 µM | C[C@H]1Cn2nc(OCC(C)(C)S(C)(=O)=O)cc2-c2cnc([C@@](C)(O)C(F)(F)F)n21 [Example 84]
0.017 µM | C[C@H]1Cn2nc(OCCC3(C#N)CC3)cc2-c2cnc([C@@](C)(O)C(F)(F)F)n21 [Example 88]
